Data as given in patent US8318657B2, “Methods and compositions for preventing and/or treating pancreatitis” (Flinders Technologies Pty Ltd., priority 2005, dated 2012).
Entries after “also recorded” stand apart in the source; their conditions may differ.

Legend:
[1] = test system: basal pancreatic exocrine secretion; assay: Basal pancreatic exocrine secretion in anaesthetised possums; assay type: in vivo, Australian Brush-tailed possums (Trichosurus vulpecula); conditions: galanin 0.5 or galantide 1.5 nmol/kg bolus then 2 nmol/kg/h i.v., preliminary study
Procedure: The possums were anaesthetized as described above. The left femoral vein was cannulated with two cannulae (1.05 mm OD, 0.35 ID) for administration of anaesthetic drugs and normal saline. […] A midline laparotomy was then performed. With minimal handling of tissues, the duodenum with the sphincter of Oddi was placed on a platform and stabilised with pins. The pancreatic duct component of the sphincter of Oddi was identified with the aid of a dissecting microscope and opened with micro-scissors. It was then cannulated (1.5 mm OD, 0.9 mm ID) advanced 4-5 mm and ligated with 5-0 prolene suture. This cannula was left open to collect pancreatic juice. After an initial stabilization period of 15 minutes, the pancreatic juice was collected every 30 minutes for 3.5 hours.
(§1) The quantity of pancreatic exocrine secretion was estimated gravimetrically (basal secretion and stimulated secretion).

[2] = test system: hyperstimulated pancreatic exocrine secretion; assay: Hyperstimulated (CCK/secretin) pancreatic exocrine secretion in anaesthetised possums; assay type: in vivo, Australian Brush-tailed possums (Trichosurus vulpecula); conditions: CCK/secretin 5 ug/kg of each/hour i.v., galanin 0.5 or galantide 1.5 nmol/kg bolus then 2 nmol/kg/h, decrease of elevated volume, preliminary study
Procedure: The experimental setup was similar to as described above. In the control group after an initial stabilization period of 15 minutes, the pancreatic juice was collected at half hourly intervals for one hour. This established the basal secretion rate. Then a mixture of cholecystokinin and secretin (CCK-SEC) was infused i.v at 5 μg (of each peptide)/kg/hr for the entire duration of the experiment.
The galanin or galantide infusion was continued for one and a half hour and then stopped. The CCK-SEC infusion was further continued for one hour. During the entire course of experiment, pancreatic juice was collected at half hourly intervals.
as §1

[3] = test system: mice without acute pancreatitis; assay: Control groups: mice given galanin or galanin antagonist alone (saline, no caerulein); conditions: mice without AP
[4] = test system: caerulein-induced acute pancreatitis (AP) in mice; assay: Caerulein-induced acute pancreatitis in mice (mild model, 7 hourly i.p. injections) with galanin or galanin antagonists; assay type: in vivo, mouse (female Balb C or Swiss); conditions: for pancreatic acinar cell necrosis score: histology scoring system
[5] = test system: possum model of acute pancreatitis (AP); assay: Possum model of acute pancreatitis (pancreatic duct ligation + CCK/secretin) with galanin or galantide; assay type: in vivo, Australian Brush-tailed possums (Trichosurus vulpecula); conditions: for plasma amylase activity / plasma lipase activity / pancreatic vascular perfusion (PVP) / pancreatic oedema: possum AP; for pancreatic oedema: pancreas harvested 8 hours post-AP induction, H&E, point counting, treatment from 15 minutes prior to AP induction, decrease of AP-induced oedema
[6] = mouse caerulein AP, 20 nmol/kg i.p. with each caerulein injection, reduction of AP-induced level
[7] = mouse caerulein AP, 40 nmol/kg i.p. with each caerulein injection, reduction of AP-induced level
[8] = mouse caerulein AP, GT 40 nmol/kg, treatment delayed for 2 hours post-AP induction
[9] = GT 1.5 nmol/kg bolus then 2 nmol/kg/h i.v., delayed: initiated 2 hours post-AP induction
[10] = GT 1.5 nmol/kg bolus then 2 nmol/kg/h i.v., delayed: initiated 2 hours post-AP induction, listed as GT
[11] = i.v. bolus (GL 0.5, GT 1.5 nmol/kg) then 2 nmol/kg/h continuous infusion, initiated 15 minutes prior to AP induction, effect on AP-induced rise
[12] = i.v. bolus (GL 0.5, GT 1.5 nmol/kg) then 2 nmol/kg/h continuous infusion, initiated 15 minutes prior to AP induction, effect on AP-induced rise, listed as GT

Compound: CSCC[C@H](NC(=O)[C@H](CC(C)C)NC(=O)CNC(=O)[C@H](Cc1ccccc1)NC(=O)[C@H](Cc1ccccc1)NC(=O)[C@H](CCC(N)=O)NC(=O)[C@H](CCC(N)=O)NC(=O)[C@@H]1CCCN1C(=O)CNC(=O)[C@H](CC(C)C)NC(=O)[C@H](CC(C)C)NC(=O)[C@H](Cc1ccc(O)cc1)NC(=O)CNC(=O)[C@H](C)NC(=O)[C@H](CO)NC(=O)[C@H](CC(N)=O)NC(=O)[C@H](CC(C)C)NC(=O)[C@@H](NC(=O)[C@H](Cc1c[nH]c2ccccc12)NC(=O)CN)[C@@H](C)O)C(N)=O [Galantide, Galanin(1-13)-substance P(5-11) amide]
- basal rate of pancreatic exocrine secretion (volume) [1]: does not influence basal exocrine secretion (volume)
- hyperstimulated pancreatic exocrine secretion (volume of pancreatic juice) [2]: does reduce hyper-stimulated exocrine secretion
- hyperstimulated pancreatic exocrine secretion (volume of pancreatic juice) ([2]; listed as galantide): decreased
- pancreatic myeloperoxidase (MPO) activity ([3]; 20 nmol/kg alone): did induce a low level of pancreatic MPO
- pancreatic tissue architecture (histological sections) ([3]; 20 nmol/kg alone): near normal pancreatic architecture
- plasma amylase activity ([3]; 20 nmol/kg alone, vs baseline): did not increase plasma amylase activity above baseline activity
- plasma lipase activity ([3]; 20 nmol/kg alone, vs baseline): did not increase plasma lipase activity above baseline activity
- pancreatic myeloperoxidase (MPO) activity ([3]; 40 nmol/kg alone): did induce a low level of pancreatic MPO
- pancreatic myeloperoxidase (MPO) activity ([4]; mouse caerulein AP, 10 nmol/kg i.p. with each caerulein injection, reduction of AP-induced level, listed as GT): also effective; also recorded: significantly reduced
- pancreatic tissue architecture / AP-induced pancreatic damage (histological sections) ([4]; mouse caerulein AP, 20 nmol/kg): reduced the acute pancreatitis-induced pancreatic damage
- pancreatic myeloperoxidase (MPO) activity [4, 6]: significantly reduced
- plasma amylase activity [4, 6]: reduced the plasma amylase level
- plasma lipase activity [4, 6]: significantly reduced
- plasma amylase activity ([4]; mouse caerulein AP, 20 nmol/kg i.p. with each caerulein injection, reduction of AP-induced level, listed as GT): significantly reduced
- pancreatic acinar cell necrosis score ([4]; mouse caerulein AP, 20 nmol/kg): reduced the pancreatitis-induced necrosis
- pancreatic acinar cell necrosis score ([4]; mouse caerulein AP, 20 nmol/kg, listed as GT): significantly reduced the necrosis score
- histology score (pancreatic tissue damage) ([4]; mouse caerulein AP, 20 nmol/kg, scoring system): significantly reduced the histology score
- plasma amylase activity [4, 7]: reduced the plasma amylase level
- plasma lipase activity [4, 7]: significantly reduced
- plasma amylase activity ([4]; mouse caerulein AP, 40 nmol/kg i.p. with each caerulein injection, reduction of AP-induced level, listed as GT): significantly reduced
- pancreatic myeloperoxidase (MPO) activity ([4]; mouse caerulein AP, 40 nmol/kg i.p. with each caerulein injection, vs AP alone): significantly reduced
- plasma amylase activity [4, 8]: significantly reduced
- plasma lipase activity [4, 8]: significantly reduced
- pancreatitis-induced plasma hyperenzymemia ([4]; mouse caerulein AP, galantide administered 2 hours post pancreatitis onset, preliminary results): reduces the pancreatitis-induced plasma hyperenzymemia
- severity of pancreatitis (summary) ([4]; mouse pancreatitis studies): has the ability to reduce the severity of pancreatitis
- plasma amylase activity [5, 9]: reduces plasma amylase and lipase secretion
- plasma lipase activity [5, 9]: reduces plasma amylase and lipase secretion
- plasma amylase activity [5, 10]: reduced the AP-induced rise in plasma amylase activity
- plasma lipase activity [5, 10]: suppressed the AP-induced rise in plasma lipase activity
- pancreatic vascular perfusion (PVP) ([5]; i.v. bolus (GL 0.5, GT 1.5 nmol/kg) then 2 nmol/kg/h continuous infusion, initiated 15 minutes prior to AP induction): increases PVP from the outset
- plasma amylase activity [5, 11]: completed prevented the pancreatitis-induced increase in plasma amylase
- plasma lipase activity [5, 11]: markedly depressed the pancreatitis-induced increase in plasma lipase
- plasma amylase activity [5, 12]: completely suppressed the AP-induced rise in plasma amylase activity
- plasma lipase activity [5, 12]: markedly suppressed the AP-induced rise in plasma lipase activity
- pancreatic vascular perfusion (PVP) ([5]; i.v. bolus (GL 0.5, GT 1.5 nmol/kg) then 2 nmol/kg/h continuous infusion, initiated 15 minutes prior to AP induction, listed as GT): sustained fall in PVP
- pancreatic oedema [5]: reduced
- pancreatic oedema ([5]; listed as GT): significantly decreased
- severity of pancreatitis (summary) ([5]; possums, administration prior to the onset and also after onset of acute pancreatitis): reduces the severity of pancreatitis
